Data reported in PubChem BioAssay AID2060904 (Molecular Pharmacology Branch, DTP, NCI, 2025).

Test system: 349418-098-R-PDC complex spheroid viability
Experiment: Anticancer human tumor 349418-098-R-PDC patient-derived lung adenocarcinoma cell line growth inhibition [RAS]
Settings: for IC50: curve of first compound; for viability, T/C: stronger effect = lower value
In short: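 Tumour cells grown as complex spheroids with HUVEC endothelial cells and mesenchymal stem cells, treated with RAS pathway inhibitor combinations. Each agent spans half-log steps from near clinical Cmax, or 10 microM where Cmax is unknown.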
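Also: spheroids exposed to compound for seven days before viability readout.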

Q: Which IC50 (second compound 0.00316 µM) does the source give for `CC(C)n1nc(-c2ccc3oc(N)nc3c2)c2c(N)ncnc21` + C=CC(=O)N1CCN(c2nc(OCC3CCCN3C)nc3c(F)c(-c4nc(N)cc(C)c4C(F)(F)F)c(Cl)cc23)C(C)C1 here?
A: Its IC50 is 5.33 nM.

Q: And the IC50 (second compound 0.01 µM)?
A: The IC50 was 3.53 nM.

Q: And the IC50 (second compound 0.0316 µM)?
A: Its IC50 is 3.24 nM.

Q: And the IC50 (second compound 0.1 µM)?
A: The IC50 was 3.99 nM.

Q: And the IC50 (second compound 0.316 µM)?
A: Its IC50 is 3.07 nM.

Q: And the IC50 (second compound 1 µM)?
A: The IC50 was 3.64 nM.

Q: What about the viability, T/C (second compound 0.00316 µM, first compound 0.000316 µM) of the same molecule?
A: The viability, T/C was 85.2%.

Q: What about the viability, T/C (second compound 0.00316 µM, first compound 0.001 µM) of the same molecule?
A: The viability, T/C was 90.4%.

Q: What about the viability, T/C (second compound 0.00316 µM, first compound 0.00316 µM) of the same molecule?
A: Its viability, T/C is 72.3%.

Q: What about the viability, T/C (second compound 0.00316 µM, first compound 0.01 µM) of the same molecule?
A: Its viability, T/C is 22.8%.

Q: What about the viability, T/C (second compound 0.00316 µM, first compound 0.0316 µM) of the same molecule?
A: Its viability, T/C is 8.58%.

Q: What about the viability, T/C (second compound 0.00316 µM, first compound 0.1 µM) of the same molecule?
A: Its viability, T/C is 6.85%.

Q: And the viability, T/C (second compound 0.01 µM, first compound 0.000316 µM)?
A: The viability, T/C was 79.3%.

Q: And the viability, T/C (second compound 0.01 µM, first compound 0.001 µM)?
A: The viability, T/C was 124%.

Q: What about the viability, T/C (second compound 0.01 µM, first compound 0.00316 µM) of the same molecule?
A: The viability, T/C was 54.2%.

Q: What about the viability, T/C (second compound 0.01 µM, first compound 0.01 µM) of the same molecule?
A: Its viability, T/C is 15.6%.

Q: What about the viability, T/C (second compound 0.01 µM, first compound 0.0316 µM) of the same molecule?
A: Its viability, T/C is 7.53%.

Q: And the viability, T/C (second compound 0.01 µM, first compound 0.1 µM)?
A: The viability, T/C was 7.07%.

Q: And the viability, T/C (second compound 0.0316 µM, first compound 0.000316 µM)?
A: Its viability, T/C is 76.6%.

Q: And the viability, T/C (second compound 0.0316 µM, first compound 0.001 µM)?
A: Its viability, T/C is 115%.

Q: What about the viability, T/C (second compound 0.0316 µM, first compound 0.00316 µM) of the same molecule?
A: Its viability, T/C is 50.9%.

Q: What about the viability, T/C (second compound 0.0316 µM, first compound 0.01 µM) of the same molecule?
A: The viability, T/C was 14.1%.

Q: And the viability, T/C (second compound 0.0316 µM, first compound 0.0316 µM)?
A: Its viability, T/C is 8.15%.

Q: What about the viability, T/C (second compound 0.0316 µM, first compound 0.1 µM) of the same molecule?
A: The viability, T/C was 5.8%.

Q: What about the viability, T/C (second compound 0.1 µM, first compound 0.000316 µM) of the same molecule?
A: Its viability, T/C is 52.8%.

Q: And the viability, T/C (second compound 0.1 µM, first compound 0.001 µM)?
A: The viability, T/C was 98.9%.

Q: And the viability, T/C (second compound 0.1 µM, first compound 0.00316 µM)?
A: The viability, T/C was 58.2%.

Q: What about the viability, T/C (second compound 0.1 µM, first compound 0.01 µM) of the same molecule?
A: Its viability, T/C is 14.5%.

Q: What about the viability, T/C (second compound 0.1 µM, first compound 0.0316 µM) of the same molecule?
A: Its viability, T/C is 8.94%.

Q: What about the viability, T/C (second compound 0.1 µM, first compound 0.1 µM) of the same molecule?
A: Its viability, T/C is 5.94%.

Q: And the viability, T/C (second compound 0.316 µM, first compound 0.000316 µM)?
A: Its viability, T/C is 63.4%.

Q: What about the viability, T/C (second compound 0.316 µM, first compound 0.001 µM) of the same molecule?
A: The viability, T/C was 90.8%.

Q: What about the viability, T/C (second compound 0.316 µM, first compound 0.00316 µM) of the same molecule?
A: The viability, T/C was 49.3%.

Q: What about the viability, T/C (second compound 0.316 µM, first compound 0.01 µM) of the same molecule?
A: Its viability, T/C is 14%.

Q: What about the viability, T/C (second compound 0.316 µM, first compound 0.0316 µM) of the same molecule?
A: The viability, T/C was 8.74%.

Q: And the viability, T/C (second compound 0.316 µM, first compound 0.1 µM)?
A: The viability, T/C was 6.6%.

Q: And the viability, T/C (second compound 1 µM, first compound 0.000316 µM)?
A: Its viability, T/C is 57.6%.

Q: What about the viability, T/C (second compound 1 µM, first compound 0.001 µM) of the same molecule?
A: The viability, T/C was 79.6%.

Q: What about the viability, T/C (second compound 1 µM, first compound 0.00316 µM) of the same molecule?
A: Its viability, T/C is 53.8%.

Q: And the viability, T/C (second compound 1 µM, first compound 0.01 µM)?
A: The viability, T/C was 15.2%.

Q: And the viability, T/C (second compound 1 µM, first compound 0.0316 µM)?
A: The viability, T/C was 8.85%.

Q: And the viability, T/C (second compound 1 µM, first compound 0.1 µM)?
A: Its viability, T/C is 5.88%.
